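Where inhibition never reached the appropriate level, the endpoint shown equals the highest concentration tested. Otherwise, values were interpolated linearly from a five-concentration, 48-hour dose response in 96-well plates. At the GI50, growth is halved. TGI: total growth inhibition.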
What was measured:
Assay in all cases: DTP human tumour cell line panel, 48 h
HCT-15 colon = tested on: HCT-15 colon
SW-620 colon = tested on: SW-620 colon
KM12 colon = tested on: KM12 colon
HCC-2998 colon = tested on: HCC-2998 colon
HOP-92 NSCLC = tested on: HOP-92 NSCLC
NCI-H226 lung = tested on: NCI-H226 lung
A549 NSCLC = tested on: A549 NSCLC
NCI-H522 lung = tested on: NCI-H522 lung
LOX IMVI melanoma = tested on: LOX IMVI melanoma
MOLT-4 leukemia = tested on: MOLT-4 leukemia

Structure (SMILES) | GI50 (HCT-15 colon) [µM] | TGI (HCT-15 colon) [µM] | GI50 (SW-620 colon) [µM] | TGI (SW-620 colon) [µM] | GI50 (KM12 colon) [µM] | TGI (KM12 colon) [µM] | GI50 (HCC-2998 colon) [µM] | TGI (HCC-2998 colon) [µM] | GI50 (HOP-92 NSCLC) [µM] | TGI (HOP-92 NSCLC) [µM] | GI50 (NCI-H226 lung) [µM] | TGI (NCI-H226 lung) [µM] | GI50 (A549 NSCLC) [µM] | TGI (A549 NSCLC) [µM] | GI50 (NCI-H522 lung) [µM] | TGI (NCI-H522 lung) [µM] | GI50 (LOX IMVI melanoma) [µM] | TGI (LOX IMVI melanoma) [µM] | TGI (MOLT-4 leukemia) [µM] | GI50 (MOLT-4 leukemia) [µM]
CN1CCN(Cc2ccc(NC(=O)c3cncc(C#Cc4c(N)ncc5cc(F)ccc45)c3)cc2C(F)(F)F)CC1 | 0.631 | 1.31 | 0.529 | 1.4 | 0.0172 | 0.738 | 2.04 | 11.1 | 0.2 | 2.03 | 0.442 | 8.56 | 0.887 | 1.73 | 2.01 | 5.45 | 0.587 | 1.26 |  | 
O=S1c2ccc(Cl)cc2CC(SSC2Cc3cc(Cl)ccc3S(=O)c3ccccc32)c2ccccc21 (stereo not given) |  |  |  | > 100 |  | > 100 |  | > 100 |  | > 100 |  | > 100 |  | > 100 |  | > 100 |  | > 100 | > 100 | 
CCCC(=O)NNc1[nH]c(-c2ccc(OC)cc2)cc1C(=O)OCC | 9.47 | 21.3 | 3.54 | 12.6 | 37.7 | > 100 |  |  | 18.6 | 35.5 | 16.1 | 30.1 | 21.5 | 44.8 | 24 | 50 | 16.8 | 30.5 | > 100 | 6.52
O=C(NCC#CCO)C(F)(F)F |  | > 100 |  | > 100 |  | > 100 |  | > 100 |  |  |  | > 100 |  | > 100 |  | > 100 |  | > 100 | > 100 | 
O=C1/C(=C/c2ccccc2)CCCC/C1=C\c1ccccc1 |  | > 100 |  | > 100 |  | > 100 |  | > 100 |  | > 100 |  | > 100 |  | > 100 |  |  |  | > 100 | > 100 | 
CC(C)=CCC/C(C)=C/CC/C(=C/COP(=O)(OCc1ccc([N+](=O)[O-])o1)N(C)CCCCCl)C(C)(C)C (stereo not given) | 1.66 | 6.79 | 3.07 | 8.57 | 3.63 | 14.9 | 0.0486 | 2.29 | 12.8 | 25.4 |  |  | 10.9 | 27.5 | 2.66 | 10 | 1.28 | 4.68 | > 100 | 1.82
COC(=O)C1=CC2OC13CC1CCC3(C2=O)C1(C)C (stereo not given) |  | 18.9 |  | 19.4 |  | 30.6 |  | 27.8 |  |  |  | 34.2 |  | 92.7 |  | 9.37 |  |  | 33.7 | 
CCCCCCCCCCCC(=O)OCC1OC(n2cc(F)c(=O)[nH]c2=O)C(N)C(O)C1O (stereo not given) |  | > 100 |  | > 100 |  | > 100 |  | > 100 |  | > 100 |  | > 100 |  | > 100 |  | > 100 |  |  | > 100 | 
COC(=O)C1=CC2OC1(C)C1(CC1)C2=O (stereo not given) |  | 40 |  | 34 |  | 43.9 |  | 34.2 |  |  |  | 43.5 |  | 70 |  | 20.7 |  | 28.5 | 27.2 | 
Cn1c2cccc3nnc4cccc(c4c32)n1C |  | > 100 |  | > 100 |  | > 100 |  | > 100 |  | > 100 |  | > 100 |  | > 100 |  |  |  | > 100 | > 100 | 
COC(=O)/C(=C/CC(N=C(c1ccccc1)c1ccccc1)C(=O)OC)N=C(c1ccccc1)c1ccccc1 (stereo not given) |  | > 100 |  | > 100 |  | > 100 |  | > 100 |  |  |  |  |  | > 100 |  | > 100 |  | > 100 | > 100 | 
COC1CC2CCC(C)[C@](O)(O2)C(=O)C(=O)N2CCCCC2C(=O)OC(C(C)CC2CCC(O)C(OC)C2)CC(=O)C(C)C=C(C)C(OC(=O)CN(C)C)C(OC)C(=O)C(C)CC(C)/C=C/C=C/C=C\1C (stereo not given in full) |  | 22.6 |  | 21.9 |  | 23.1 |  |  |  | 21.6 |  | 22.3 |  | 26.9 |  | 22.6 |  | 16.7 |  | 
Cc1ccc(C2=NO[C@@H]3C(=O)N(c4ccc(Cc5ccc(N6C(=O)[C@H]7C(c8ccc(C)cc8)=NO[C@H]7C6=O)cc5)cc4)C(=O)[C@H]23)cc1 |  | > 100 |  | > 100 |  | > 100 |  | > 100 |  | > 100 |  | > 100 |  | > 100 |  |  |  | > 100 |  | 
COc1cc(-c2c(C)c(C)nc(OC)c2C#N)cc(OC)c1OC |  | > 100 |  | > 100 |  | > 100 |  | > 100 |  | > 100 |  | > 100 |  | > 100 |  |  |  |  | > 100 | 
CCOC(=O)C1C(c2ccc([N+](=O)[O-])cc2)NC(c2ccc([N+](=O)[O-])cc2)C(C(=O)OC)S1(=O)=O (stereo not given) |  | > 100 |  | > 100 |  | > 100 |  | > 100 |  |  |  | > 100 |  | > 100 |  | > 100 |  | > 100 | > 100 | 
CCN(CC)CCOc1cc2c(C(=O)OC)c(C)oc2cc1C(C)=O | 10.5 | 22.7 | 7.56 | 23.9 | 4.45 | 21.1 | 15.7 | 29.3 |  |  | 11.4 | 25.2 | 18.5 | 38.4 | 13.2 | > 100 | 10.2 | 22 | 7.5 | 3.02
Cc1cc(C)n(-c2c(O)ccc(O)c2-n2nc(C)cc2C)n1 |  | > 100 |  | > 100 |  | > 100 |  | > 100 |  | > 100 |  |  |  | > 100 |  | > 100 |  | > 100 | > 100 | 
C[C@]12CCC(=O)C=C1CC[C@@H]1[C@@H]2CC[C@]2(C)C(=O)/C(=C/c3cccc(OCCN4CCOCC4)c3)C[C@@H]12 | 5.29 | 42.1 | 8.45 | 27.7 | 9.02 | > 100 |  |  | 10.2 | 31.7 | 14.2 | > 100 | 7.17 | 89.5 | 8 | 26.4 | 9.44 | 26.6 |  | 
